In patent US20130177609A1, “Compositions and Methods for Increasing Bioavailability of Topical Ophthalmic Drugs” (priority 2008, published 2013):
Read-outs that look alike come from different tables or passages of the source.

Assay: Example 2: ocular tissue pharmacokinetics after topical dose, decreasing dose volume at same total amount of drug
Format: in vivo, New Zealand Composite pigmented rabbits
Details: for DNAUC / AUC(0-t) / Cmax / Tmax: topical ocular; for exposure (absolute Cmax and AUC): constant 10 μg dose, varying volume/concentration
Protocol: This study was carried out using a non-crossover design involving a total of 84 New Zealand Composite pigmented rabbits arbitrarily divided into 3 groups of 28 rabbits each. Three compositions were prepared as aqueous suspensions substantially as disclosed above comprising 1, 0.33, and 0.1 mg/mL BOL-303242-X, respectively. Each composition also contained 100 mg/mL PEG 3350 and 10 mg/mL Tween® 80. The compositions were shipped to the test site as a ready-to-use suspension.
The test compositions were administered so as to achieve 10-μg topical dosed drug amount in each eye of all the study animals. The concentration of the composition and the instillation volume were varied between the three study groups to keep the dosed drug amount constant. Animals in Group 1 received 10 μL/eye of the 1.0 mg/mL composition; animals comprising Groups 2 and 3 received 30 μL/eye of the 0.33 mg/mL composition and 100 μL/eye of the 0.1 mg/mL composition, respectively.
At predetermined time intervals after dosing, rabbits (four per collection time) were euthanized after anesthetization and the eyes enucleated and dissected. Tear, aqueous humor, conjunctiva, cornea, and iris/ciliary body samples were collected from both eyes of each animal and stored frozen until being shipped on dry ice to the analytical laboratory. Samples were collected at 0.083, 0.25, 0.5, 1, 2, 4, and 6 hours after dosing. BOL-303242-X concentrations in the above tissues and matrices were determined by LC/MS/MS. For the purpose of calculating mean concentrations, a value of ½ the LLQ was assigned to all samples with concentrations below the LLQ (BLQ). In addition, any sample with a measured concentration that was more than 10-fold higher than the median concentration in the respective sample pool was considered an outlier, and was not included in any calculations. Similarly, concentrations that were 10-fold lower than the median value and below the LLQ were also considered to be outliers. The number of study samples that were determined to be outliers using the above criteria for each tissue/matrix in this study was: tears=14/144; conjunctiva=3/144; cornea=1/144; aqueous humor 2/144 and iris=4/144 samples.
Pharmacokinetic analysis of the composite concentration-versus-time data was performed using non-compartmental methods (WinNonlin version 5.2). Due to the destructive nature of the sampling regimen employed in this study, average composite data were used in the pharmacokinetic analysis.

[1] = Conjunctiva, 10 μL/eye of 1 mg/mL (10 μg)
[2] = Conjunctiva, 30 μL/eye of 0.33 mg/mL (10 μg)
[3] = Conjunctiva, 100 μL/eye of 0.1 mg/mL (10 μg)
[4] = Cornea, 10 μL/eye of 1 mg/mL (10 μg)
[5] = Cornea, 30 μL/eye of 0.33 mg/mL (10 μg)
[6] = Cornea, 100 μL/eye of 0.1 mg/mL (10 μg)
[7] = Iris/Ciliary Body, 30 μL/eye of 0.33 mg/mL (10 μg)
[8] = Iris/Ciliary Body, 100 μL/eye of 0.1 mg/mL (10 μg)
[9] = New Zealand Composite pigmented, rabbit, aqueous humor, topical or ocular, 10 ug, 10 μL/eye of 1 mg/mL (10 μg)
[10] = New Zealand Composite pigmented, rabbit, aqueous humor, topical or ocular, 10 ug, 30 μL/eye of 0.33 mg/mL (10 μg)
[11] = New Zealand Composite pigmented, rabbit, aqueous humor, topical or ocular, 10 ug, 100 μL/eye of 0.1 mg/mL (10 μg)
[12] = New Zealand Composite pigmented, rabbit, conjunctiva, topical or ocular, 10 ug, 10 μL/eye of 1 mg/mL (10 μg)
[13] = New Zealand Composite pigmented, rabbit, conjunctiva, topical or ocular, 10 ug, 30 μL/eye of 0.33 mg/mL (10 μg)
[14] = New Zealand Composite pigmented, rabbit, conjunctiva, topical or ocular, 10 ug, 100 μL/eye of 0.1 mg/mL (10 μg)
[15] = New Zealand Composite pigmented, rabbit, cornea, topical or ocular, 10 ug, 10 μL/eye of 1 mg/mL (10 μg)
[16] = New Zealand Composite pigmented, rabbit, cornea, topical or ocular, 10 ug, 30 μL/eye of 0.33 mg/mL (10 μg)
[17] = New Zealand Composite pigmented, rabbit, cornea, topical or ocular, 10 ug, 100 μL/eye of 0.1 mg/mL (10 μg)
[18] = New Zealand Composite pigmented, rabbit, iris/ciliary body, topical or ocular, 10 ug, 30 μL/eye of 0.33 mg/mL (10 μg)
[19] = New Zealand Composite pigmented, rabbit, iris/ciliary body, topical or ocular, 10 ug, 100 μL/eye of 0.1 mg/mL (10 μg)
[20] = New Zealand Composite pigmented, rabbit, tears, topical or ocular, 10 ug, 10 μL/eye of 1 mg/mL (10 μg)
[21] = New Zealand Composite pigmented, rabbit, tears, topical or ocular, 10 ug, 30 μL/eye of 0.33 mg/mL (10 μg)
[22] = New Zealand Composite pigmented, rabbit, tears, topical or ocular, 10 ug, 100 μL/eye of 0.1 mg/mL (10 μg)
[23] = Tears, 10 μL/eye of 1 mg/mL (10 μg)
[24] = Tears, 30 μL/eye of 0.33 mg/mL (10 μg)
[25] = Tears, 100 μL/eye of 0.1 mg/mL (10 μg)

Cc1ccc2c(NCC(O)(CC(C)(C)c3cc(F)cc4c3OCC4)C(F)(F)F)cccc2n1 (stereo not drawn) [BOL-303242-X]
DNAUC (Aqueous Humor, 10 μL/eye of 1 mg/mL (10 μg)): 0.800 ng*hr/g ÷ μg dose
DNAUC (Aqueous Humor, 30 μL/eye of 0.33 mg/mL (10 μg)): 0.300 ng*hr/g ÷ μg dose
DNAUC (Aqueous Humor, 100 μL/eye of 0.1 mg/mL (10 μg)): 0.700 ng*hr/g ÷ μg dose
AUC(0-t) [1]: 0.742 µg·h/g
DNAUC [1]: 74.2 ng*hr/g ÷ μg dose
AUC(0-t) [2]: 0.575 µg·h/g
DNAUC [2]: 57.5 ng*hr/g ÷ μg dose
AUC(0-t) [3]: 0.212 µg·h/g
DNAUC [3]: 21.2 ng*hr/g ÷ μg dose
AUC(0-t) [4]: 1.01 µg·h/g
DNAUC [4]: 101 ng*hr/g ÷ μg dose
AUC(0-t) [5]: 1.02 µg·h/g
DNAUC [5]: 102 ng*hr/g ÷ μg dose
AUC(0-t) [6]: 0.745 µg·h/g
DNAUC [6]: 74.5 ng*hr/g ÷ μg dose
DNAUC (Iris/Ciliary Body, 10 μL/eye of 1 mg/mL (10 μg)): 27.3 ng*hr/g ÷ μg dose
AUC(0-t) (Iris/Ciliary Body, 10 μL/eye of 1 mg/mL (10 μg), heavily influenced by 2 animals at 2 hour): 0.273 µg·h/g
AUC(0-t) [7]: 0.0206 µg·h/g
DNAUC [7]: 2.06 ng*hr/g ÷ μg dose
AUC(0-t) [8]: 0.0186 µg·h/g
DNAUC [8]: 1.86 ng*hr/g ÷ μg dose
AUC(0-t) (New Zealand Composite pigmented, rabbit, aqueous humor, topical or ocular, 10 ug, Aqueous Humor, 10 μL/eye of 1 mg/mL (10 μg), read-out: AUC(0-t)): 8 ng·h/mL
AUC(0-t) (New Zealand Composite pigmented, rabbit, aqueous humor, topical or ocular, 10 ug, Aqueous Humor, 30 μL/eye of 0.33 mg/mL (10 μg), read-out: AUC(0-t)): 3 ng·h/mL
AUC(0-t) (New Zealand Composite pigmented, rabbit, aqueous humor, topical or ocular, 10 ug, Aqueous Humor, 100 μL/eye of 0.1 mg/mL (10 μg), read-out: AUC(0-t)): 7 ng·h/mL
Cmax [9]: 0.17 ng/mL
Tmax [9]: 120 min
Cmax [10]: 0.188 ng/mL
Tmax [10]: 120 min
Cmax [11]: 0.286 ng/mL
Tmax [11]: 120 min
Cmax [12]: 399 ± 100 ng/g
Tmax [12]: 4.98 min
Cmax [13]: 450 ± 269 ng/g
Tmax [13]: 15 min
Cmax [14]: 168 ± 101 ng/g
Tmax [14]: 15 min
Cmax [15]: 527 ± 213 ng/g
Tmax [15]: 30 min
Cmax [16]: 592 ± 297 ng/g
Tmax [16]: 4.98 min
Cmax [17]: 452 ± 129 ng/g
Tmax [17]: 15 min
Tmax (New Zealand Composite pigmented, rabbit, iris/ciliary body, topical or ocular, 10 ug, 10 μL/eye of 1 mg/mL (10 μg)): 120 min
Cmax (New Zealand Composite pigmented, rabbit, iris/ciliary body, topical or ocular, 10 ug, 10 μL/eye of 1 mg/mL (10 μg), heavily influenced by 2 animals at 2 hour): 262 ng/g
Cmax [18]: 41.9 ± 37.8 ng/g
Tmax [18]: 4.98 min
Cmax [19]: 5.92 ± 7.26 ng/g
Tmax [19]: 60 min
Cmax [20]: 247000 ng/g
Tmax [20]: 15 min
Cmax [21]: 32000 ng/g
Tmax [21]: 4.98 min
Cmax [22]: 7170 ng/g
Tmax [22]: 15 min
AUC(0-t) [23]: 60.2 µg·h/g
DNAUC [23]: 6020 ng*hr/g ÷ μg dose
AUC(0-t) [24]: 18.2 µg·h/g
DNAUC [24]: 1820 ng*hr/g ÷ μg dose
AUC(0-t) [25]: 7.74 µg·h/g
DNAUC [25]: 774 ng*hr/g ÷ μg dose
exposure (absolute Cmax and AUC) (cornea, iris/ciliary body and aqueous humor): remained relatively constant
ocular bioavailability (dose volume decreased while drug concentration in the formulation increased proportionally): increases
exposure (absolute Cmax and AUC) (tears): increases as the concentration of the drug in the dose volume increases
